# Earlier results, collected in patent US20190133115A1, “PESTICIDAL SOLUBLE MICRO-EMULSION CONCENTRATE SEED TREATMENT FORMULATIONS” (priority 2017, published 2019).
# Conditions: in alcohols, e.g., ethanol, acetone, and toluene
smiles,measurement,value
"COCC(=O)N(c1c(C)cccc1C)C(C)C(=O)OC (racemic) [Metalaxyl, methyl N-(methoxyacetyl)-N-(2,6-xylyl)-DL-alanate]",solubility,soluble
